Patent US20040186072A1, “Use of esters of long-chain fatty acids for treatment of autoimmune diseases” (priority 2001, published 2004)

Experiments:
[1] = test system: EAE induced by PLP 139-151 peptide in SJL/J mice; assay: EAE induced by PLP 139-151/CFA in SJL/J mice, clinical score 0-5; type: in vivo; details: for mean clinical score on day 22: Example 5: 100 μl s.c. daily from day 11, PBS control 2.5±0.84
[2] = test system: EAE induced with mouse spinal cord homogenate (MSCH); assay: EAE induced by mouse spinal cord homogenate (MSCH)/CFA in SJL/J mice; type: in vivo; details: for clinical severity: 100 μl s.c. daily from day 4, all control mice had died by day 15, FIG. 6
[3] = stated as known; cited from earlier work
[4] = Example 2: 100 μl i.p. daily day 0-50, followed until day 70

Molecule: CCCCCCCC/C=C\CCCCCCCC(=O)OCC [EOA, ethyl oleate]
- mice that developed EAE (incidence) ([1]; Example 1: EOA 100 μl s.c. daily day 0-11, then days 13, 15, 17, 20, 23, 26, untreated control 5 out of 5): 2 out of the 5
- mean maximal severity (clinical score 0-5) ([1]; Example 1: EOA 100 μl s.c. from day 0, control 1.67±0.29): 0.5±0.32
- effect on clinical severity and incidence of EAE ([1]; Example 1: s.c. from day 0, FIG. 1): significantly reduced clinical severity and incidence of EAE
- mean maximal clinical score (0-5) [1, 4]: 0.63±0.28
- mice that developed EAE (incidence) [1, 4]: 5 out of 8
- time mice remained stable after cessation of treatment ([1]; Example 2: i.p. daily day 0-50, treatment stopped day 50): 20 days
- maximal mean score at which disease progression was arrested ([1]; Example 4: 100 μl i.p. daily from day 12 (clinical onset) to day 35, control 3.5±0.69): 0.83±0.53
- mean maximal clinical score, partially recovered subgroups (EOA-P, IFA-P) ([1]; Example 4: daily i.p. treatment reinstated from day 40 for 40 days, FIG. 4C, untreated control 3.1±0.7): 1.3±0.19
- therapeutic effect on ongoing EAE ([1]; Example 4: i.p. daily day 12-35, FIG. 4A): immediately arrested the worsening of the clinical symptoms of EAE
- state on day 40 after withholding treatment ([1]; Example 4: i.p. daily day 12-35, then no treatment): remained stable with no evidence of disease exacerbation or development of relapses
- time to complete reversal of clinical symptoms after treatment was initiated ([1]; Example 4: i.p. daily from day 12): 8 to 10 days
- mean maximal clinical score on days 20-21 ([1]; Example 4: i.p. daily from day 12, control 3.5±0.69): 0.17±0.11
- effect of second course of treatment on clinical signs ([1]; Example 4: partially recovered subgroups, daily i.p. from day 40): no further ameliorating effect
- mean clinical score on day 22 [1]: 0.83±0.40
- clinical severity [2]: markedly reduced clinical severity
- toxicity when injected into humans [3]: non-toxic when injected into humans

Molecule: mannide mono-oleate [MMO]
- effect on disease development ([1]; Example 3: 100 μl i.p. daily from day 0, FIG. 3): completely abrogated disease development
- mean maximal clinical score on day 40 ([1]; Example 3: i.p. daily day 0-25, 15 days after injections stopped, control 2.6±0.99): 0.17±0.11
- mean maximal clinical score on day 73 ([1]; Example 3: i.p. daily day 0-25, 48 days after injections stopped, control 3.2±0.75): 0.67±0.44
- mice in which very mild clinical signs appeared after treatment was discontinued ([1]; Example 3: i.p. daily day 0-25, from day 25 on): 3 out of the 6
- clinical signs on day 20 ([1]; Example 3: i.p. daily from day 0, all 6 treated mice, control score 3.4±0.69): free of any clinical sign of EAE
- mean clinical score on day 22 [1]: 0.08±0.08
- disease development ([2]; 100 μl s.c. daily from day 4, FIG. 6): almost complete abrogation of disease development
- clinical severity [2]: markedly reduced clinical severity
- toxicity when injected into humans [3]: non-toxic when injected into humans
